tested on: HCV Replicon IB; assay: HCV replicon assay in Huh-7 cells, genotype 1b (Rluc luciferase readout); assay type: cell-based, hepatitis C virus; settings: Hepatitis C virus, 72 h; 10 uM; 1b-Rluc replicon, Huh-7 cells, 3 days; read-out: Inhibition @ 10 uM in 1b-Rluc

| Structure (SMILES) | inhibition at 10 µM [%] |
| --- | --- |
| Cc1cc(C(=O)NCc2ccccn2)nc2c(C(F)(F)F)cc(OCC(F)(F)F)cc12 [Compound 189] | 99.8 |
| COC1CN[C@H](CNC(=O)c2cc(C)c3cc(C4CC4)cc(C(F)(F)F)c3n2)C1 (single isomer, unassigned) [Compound 127] | 99.7 |
| C#Cc1cc(C(F)(F)F)c2nc(C(=O)NCc3ccccn3)cc(C)c2c1 [Compound 146] | 99.4 |
| COCCNC(=O)c1cc(C)c2cc(C3CC3)cc(C(F)(F)F)c2n1 [Compound 119] | 99.5 |
| Cc1cc(C(=O)NCCC2OCCO2)nc2c(C(F)(F)F)cc(C3CC3)cc12 [Compound 106] | 99.7 |
| C=C(C)c1cc(C(F)(F)F)c2nc(C(=O)NCc3ccccn3)cc(C)c2c1 [Compound 156] | 99.6 |
| Nc1cc(C(=O)NCc2ccccn2)nc2c(OC(F)(F)F)cc(C3CC3)cc12 [Compound 235] | 100 |
| Cc1cc(C(=O)NCc2ccccn2)nc2c(C(F)(F)F)cc(C3CC3(C)C)cc12 (stereo not drawn) [Compound 142] | 99.4 |
| O=C(NCC1(O)CC1)c1cc(Cl)c2cc(C3CC3)cc(C(F)(F)F)c2n1 [Compound 211] | 94.8 |
| Cc1cc(C(=O)NCc2ccccn2)nc2c(C(F)(F)F)cc(CC(C)C)cc12 [Compound 140] | 99.1 |
| O=C(NCC1CS(=O)(=O)CCN1)c1cc(Cl)c2cc(OC(F)F)cc(C(F)(F)F)c2n1 (stereo not drawn) [Compound 197] | 92.8 |
| Cc1cc(C(=O)NC[C@H]2CCCN2)nc2c(C(F)(F)F)cc(C3CC3)cc12 (single isomer, unassigned) [Compound 113] | 96.2 |
| Cc1cc(C(=O)NC[C@H]2CC(F)(F)CN2)nc2c(C(F)(F)F)cc(OC(F)F)cc12 [Compound 190] | 94.7 |
| Cc1cc(C(=O)NCC2CCCC(=O)N2)nc2c(C(F)(F)F)cc(C3CC3)cc12 (stereo not drawn) [Compound 91] | 92.7 |
| C#Cc1cc(OC(F)(F)F)cc2c(O)cc(C(=O)NCc3ccccn3)nc12 [Compound 237] | 21.7 |
| Cc1cc(C(=O)NCc2ccccn2)nc2c(C(F)(F)F)cc(N)cc12 [Compound 178] | 86.9 |
| O=C(NCc1ccccn1)c1cc(Cl)c2cc(C3CC3)cc(OC(F)(F)F)c2n1 [Compound 233] | 100 |
| O=C(NC[C@@H]1CC(F)(F)CCN1)c1cc(Cl)c2cc(OC(F)F)cc(C(F)(F)F)c2n1 (single isomer, unassigned) [Compound 203] | 98.3 |
| O=C(NCc1ccccn1)c1cc(C2CC2)c2cc(C3CC3)cc(C(F)(F)F)c2n1 [Compound 214] | 92.6 |
| CC(=O)c1cc(C(F)(F)F)c2nc(C(=O)NCc3ccccn3)cc(C)c2c1 [Compound 160] | 93.5 |
| Cc1cc(-c2nnc(NCC3(C)OCCO3)o2)nc2c(C(F)(F)F)cc(C3CC3)cc12 [Compound 247] | 100 |
| Cc1cc(C(=O)NCc2ncccn2)nc2c(C(F)(F)F)cc(C3CC3)cc12 [Compound 90] | 100 |
| CCOCCOCCOCCCNc1nnc(-c2cc(C)c3cc(C4CC4)cc(C(F)(F)F)c3n2)o1 [Compound 253] | 80 |
| Cc1cc(C(=O)NC[C@@H]2CC(O)CN2)nc2c(C(F)(F)F)cc(OC(F)F)cc12 (stereo partly drawn) [Compound 191] | 50.2 |
| Cc1cc(C(=O)NCc2ccc(C#N)cn2)nc2c(C(F)(F)F)cc(C3CC3)cc12 [Compound 112] | 99.7 |
| Cc1cc(C(=O)NCc2cc(C(F)(F)F)ccn2)nc2c(C(F)(F)F)cc(C3CC3)cc12 [Compound 86] | 100 |
| CCCCNc1nnc(-c2cc(C)c3cc(C4CC4)cc(C(F)(F)F)c3n2)s1 [Compound 288] | 100 |
| CC(=O)Nc1cc(C(F)(F)F)c2nc(C(=O)NCc3ccccn3)cc(C)c2c1 [Compound 177] | 94.7 |

same assay, conditions: Hepatitis C virus, Huh-7, 72 h, HCV1B replicon, Huh-7 cells, 3 days; read-out: EC50_HCV1B_

| Structure (SMILES) | EC50 [µM] |
| --- | --- |
| COC(C)(C)c1cc(C2CC2)cc2c(C)cc(-c3nnc(NCC4OCCO4)o3)nc12 [Compound 545] | 0.00768 |
| CC(C)(C)c1cc(C2CC2)cc2c(N)cc(-c3nnc(NC4CCCC4)o3)nc12 [Compound 348] | 0.00527 |
| Cc1cc(-c2nnc(NCC3COC(C)(C)O3)o2)nc2c(C(C)(C)C)cc(C3CC3)cc12 (stereo not drawn) [Compound 415] | 0.085 |
| Cc1cc(-c2nnc(NCCCCO)s2)nc2c(C(F)(F)F)cc(C3CC3)cc12 [Compound 307] | 0.0141 |
| CSCOC1(C)CC(Nc2nnc(-c3cc(C)c4cc(OCC(F)(F)F)cc(C(C)(C)C)c4n3)o2)C1 (stereo not drawn) [Compound 494] | 0.0431 |
| Cc1cc(-c2nnc(NC3CCNC3)o2)nc2c(C(C)(C)C)cc(C3CC3)cc12 (stereo not drawn) [Compound 399] | 0.888 |
| CC(C)(C)c1cc(C2CC2)cc2c(N)cc(-c3nnc(NCCCO)o3)nc12 [Compound 365] | 0.00487 |
| Cc1cc(-c2nnc(N[C@@H]3CCOC3)o2)nc2c(C(C)(C)C)cc(C3CC3)cc12 [Compound 405] | 0.00525 |
| Cc1cc(-c2nnc(NCC3OCCO3)o2)nc2c(OC(C)(C)C)cc(C3CC3)cc12 [Compound 548] | 0.0371 |
| Nc1cc(C(=O)NC[C@@H]2CC(F)(F)CCN2)nc2c(C(F)(F)F)cc(OC(F)F)cc12 [Compound 314] | 0.0261 |
| Cc1cc(-c2nnc(N[C@H]3C[C@@](O)(CO)C3)o2)nc2c(C(C)(C)C)cc(OCC(F)(F)F)cc12 [Compound 500] | 0.00757 |
| Nc1cc(C(=O)NC[C@H]2CC(F)(F)CCN2)nc2c(C(F)(F)F)cc(OC(F)F)cc12 [Compound 315] | 0.0839 |
| Cc1nnc(-c2cc(OC(F)(F)F)cc3c(Cl)cc(C(=O)NCc4ccccn4)nc23)o1 [Compound 338] | 4.71 |
| Cc1cc(C(=O)NCC2CC(F)(F)CN2)nc2c(OC(F)(F)F)cc(C3CC3)cc12 (stereo not drawn) [Compound 437] | 0.0202 |
| Cc1cc(-c2nnc(NCc3ncc[nH]3)o2)nc2c(C(C)(C)C)cc(C3CC3)cc12 [Compound 394] | 1.13 |
| CC(C)(C)c1cc(C2CC2)cc2c(N)cc(-c3nnc(NCc4ccccn4)o3)nc12 [Compound 347] | 0.00754 |
| CCCCNc1nnc(-c2cc(C)c3cc(C4CC4)cc(C(C)(C)C)c3n2)s1 [Compound 377] | 0.00623 |
| CS(=O)(=O)N1CCNC(CNC(=O)c2cc(N)c3cc(OC(F)F)cc(C(F)(F)F)c3n2)C1 (stereo not drawn) [Compound 318] | 44.4 |
| Cc1cc(-c2nnc(NC[C@H]3C[C@H](O)C3)o2)nc2c(C(C)(C)C)cc(C3CC3)cc12 [Compound 418] | 0.00458 |
| Cc1cc(-c2nnc(Nc3cccnc3)o2)nc2c(C(C)(C)C)cc(OCC(C)(C)O)cc12 [Compound 537] | 0.0691 |
| Cc1cc(-c2nnc(N[C@H]3C[C@@H](OP(=O)(O)O)C3)o2)nc2c(C(C)(C)C)cc(OCC(F)(F)F)cc12 [Compound 480] | 0.00124 |
| Cc1cc(-c2nnc(N[C@H]3C[C@H](O)C3)o2)nc2c(C(C)(C)C)cc(OCC(F)(F)F)cc12 [Compound 463] | 0.00376 |
| Cc1cc(-c2nnc(NC3CSC3)o2)nc2c(C(C)(C)C)cc(OCC(F)(F)F)cc12 [Compound 505] | 0.00625 |
| Cc1cc(-c2nnc(NC3CCCC3)o2)nc2c(C(F)(F)F)cc(C3CC3)cc12 [Compound 390] | 0.00175 |
| CCCCNC(=O)[C@@H]1CSC(c2cc(C)c3cc(OC(F)F)cc(C(F)(F)F)c3n2)=N1 [Compound 340] | 3.91 |
| Cc1cc(-c2nnc(NCC(F)(F)CO)o2)nc2c(C(C)(C)C)cc(OCC(F)(F)F)cc12 [Compound 459] | 0.00432 |

Reference: US20120053148A1, “INHIBITORS OF HEPATITIS C VIRUS” (GILEAD SCIENCES, INC., priority 2010, published 2012)
